From PMC4888466 (Biochemical Journal, 2016)

Tests used:
[1] = biological target: T1, RML-1 (Caenorhabditis elegans, UniProt Q9XUS4); assay: EnzChek pyrophosphate assay, […] nm; format: biochemical; conditions: 1 mM Glc-1-P; 5 mM MgCl2, pH 7.5, 25°C
T1 sequence (Q9XUS4 1-511): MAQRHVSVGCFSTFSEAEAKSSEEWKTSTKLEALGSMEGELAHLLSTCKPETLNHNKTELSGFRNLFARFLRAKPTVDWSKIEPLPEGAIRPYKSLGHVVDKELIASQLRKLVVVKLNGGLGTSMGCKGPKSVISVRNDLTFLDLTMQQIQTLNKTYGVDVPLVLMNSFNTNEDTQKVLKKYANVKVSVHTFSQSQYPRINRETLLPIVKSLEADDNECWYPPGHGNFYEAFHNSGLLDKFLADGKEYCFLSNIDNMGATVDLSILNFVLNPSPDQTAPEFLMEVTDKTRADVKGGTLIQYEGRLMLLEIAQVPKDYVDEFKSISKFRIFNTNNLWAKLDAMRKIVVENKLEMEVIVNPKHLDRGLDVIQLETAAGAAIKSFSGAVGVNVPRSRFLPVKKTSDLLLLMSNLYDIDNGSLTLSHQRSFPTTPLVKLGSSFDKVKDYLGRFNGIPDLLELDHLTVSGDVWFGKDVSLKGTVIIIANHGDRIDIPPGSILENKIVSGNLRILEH

[2] = biological target: T2, RML-4–RML-5 (Caenorhabditis elegans, UniProt Q17556); assay: LC–MS; format: biochemical; conditions: formed from dTDP-4-keto-6-deoxyglucose with RML-3 and NAD(P)H, 25°C
T2 sequence (Q17556 1-631): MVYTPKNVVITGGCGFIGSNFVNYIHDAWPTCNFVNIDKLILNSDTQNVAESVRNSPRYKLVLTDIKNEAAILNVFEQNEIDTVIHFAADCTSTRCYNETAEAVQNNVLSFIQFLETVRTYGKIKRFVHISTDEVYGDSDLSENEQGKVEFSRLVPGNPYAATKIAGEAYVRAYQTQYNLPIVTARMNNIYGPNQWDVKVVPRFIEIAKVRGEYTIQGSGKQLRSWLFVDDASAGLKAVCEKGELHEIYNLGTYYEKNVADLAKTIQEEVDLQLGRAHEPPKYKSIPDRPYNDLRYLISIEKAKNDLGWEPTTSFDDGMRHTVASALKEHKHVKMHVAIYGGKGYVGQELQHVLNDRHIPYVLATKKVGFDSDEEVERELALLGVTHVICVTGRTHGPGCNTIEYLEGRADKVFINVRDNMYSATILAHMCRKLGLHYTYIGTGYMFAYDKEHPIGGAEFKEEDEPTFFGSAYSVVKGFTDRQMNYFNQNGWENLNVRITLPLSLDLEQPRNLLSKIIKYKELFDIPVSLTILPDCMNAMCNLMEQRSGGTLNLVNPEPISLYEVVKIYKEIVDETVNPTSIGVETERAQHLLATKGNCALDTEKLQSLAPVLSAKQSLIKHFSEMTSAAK
T2 sequence (Q95XM5 1-383 partner): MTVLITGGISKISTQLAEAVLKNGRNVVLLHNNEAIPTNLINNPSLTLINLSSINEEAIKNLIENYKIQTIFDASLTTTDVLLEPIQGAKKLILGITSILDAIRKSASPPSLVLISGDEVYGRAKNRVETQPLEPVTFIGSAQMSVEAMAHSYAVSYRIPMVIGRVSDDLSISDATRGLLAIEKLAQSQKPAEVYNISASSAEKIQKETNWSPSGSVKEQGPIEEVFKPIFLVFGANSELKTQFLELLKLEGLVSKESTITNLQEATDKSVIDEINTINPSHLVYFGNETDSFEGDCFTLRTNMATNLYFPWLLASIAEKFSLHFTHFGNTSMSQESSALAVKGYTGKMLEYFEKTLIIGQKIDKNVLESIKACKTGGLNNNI

| Km [1] [µM] | Compound | LC-MS; 1H NMR and COSY of HPLC-purified product [2] |
| --- | --- | --- |
| 9.47 ± 1.7 | O=c1ccn([C@@H]2O[C@H](COP(=O)(O)OP(=O)(O)OP(=O)(O)O)[C@@H](O)[C@H]2O)c(=O)[nH]1 [UTP] | – |
| – | Cc1cn([C@H]2C[C@H](O)[C@@H](COP(=O)(O)OP(=O)(O)O[C@H]3O[C@@H](C)[C@H](O)[C@@H](O)[C@H]3O)O2)c(=O)[nH]c1=O [dTDP-rhamnose] | the final product is dTDP-rhamnose when dTDP-4-keto-6-deoxyglucose is incubated with RML-3 and RML-4–RML-5 |
| 24.2 ± 2.86 | Cc1cn([C@H]2C[C@H](O)[C@@H](COP(=O)(O)OP(=O)(O)OP(=O)(O)O)O2)c(=O)[nH]c1=O [dTTP] | – |
